The experiment addresses BRAF V600E (Homo sapiens, UniProt P15056, V600E). Description: LanthaScreen biochemical kinase assay.

The term IC50 denotes the concentration that inhibits the measured activity by half.

Structures are written as SMILES.

BRAF V600E, sequence (P15056 whole entry V600E): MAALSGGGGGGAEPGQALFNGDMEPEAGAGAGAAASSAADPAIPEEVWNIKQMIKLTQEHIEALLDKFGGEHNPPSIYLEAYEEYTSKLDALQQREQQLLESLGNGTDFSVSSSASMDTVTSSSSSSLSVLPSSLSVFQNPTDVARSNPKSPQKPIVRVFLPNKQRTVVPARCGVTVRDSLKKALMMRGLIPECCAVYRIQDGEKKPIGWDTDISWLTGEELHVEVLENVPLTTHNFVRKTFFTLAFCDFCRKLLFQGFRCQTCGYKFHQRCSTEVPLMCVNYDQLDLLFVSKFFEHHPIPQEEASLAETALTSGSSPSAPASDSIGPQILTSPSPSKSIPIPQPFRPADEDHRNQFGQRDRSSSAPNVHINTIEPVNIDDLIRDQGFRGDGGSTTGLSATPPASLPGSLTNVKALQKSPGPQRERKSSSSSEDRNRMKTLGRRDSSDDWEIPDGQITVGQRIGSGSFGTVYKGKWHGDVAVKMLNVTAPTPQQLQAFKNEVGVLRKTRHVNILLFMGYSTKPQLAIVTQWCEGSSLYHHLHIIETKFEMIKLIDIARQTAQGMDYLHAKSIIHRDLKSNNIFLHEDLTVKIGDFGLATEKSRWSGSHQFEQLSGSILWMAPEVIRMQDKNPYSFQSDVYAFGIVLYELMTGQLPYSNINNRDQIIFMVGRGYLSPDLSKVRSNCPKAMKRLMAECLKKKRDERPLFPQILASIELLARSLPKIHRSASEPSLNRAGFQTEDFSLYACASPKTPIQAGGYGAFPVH

Molecule `Cc1nc(Nc2cccc(NC(=O)Nc3cc(F)ccc3C)c2)cc(N2CCOCC2)n1` [SI-046, 1-(5-Fluoro-2-methylphenyl)-3-(3-(2-methyl-6-morpholinopyrimidin-4-ylamino)phenyl)urea] yielded an IC50 of 298 nM. As for `Cc1nc(Nc2ccc(NC(=O)Nc3ccc(F)c(Cl)c3)cc2)cc(N2CCOCC2)n1` [SI-008, 1-(3-Chloro-4-fluorophenyl)-3-(4-(2-methyl-6-morpholinopyrimidin-4-ylamino)phenyl)urea], inhibition was half-maximal at 685 nM (IC50).
